Among the test systems are SK-OV-3; SF-295; NCI/ADR-RES; MOLT-4; SN12C; OVCAR-3; SW-620; TK-10; MDA-MB-231; HOP-92; ACHN; UO-31; HT-29; SK-MEL-28; UACC-62; MDA-N; COLO 205; OVCAR-8; CCRF-CEM; SNB-75.
Holding throughout (assay): NCI anticancer screen, dose series, 48 h

Results on eight compounds are retold here after ChEMBL document CHEMBL1201862, “PubChem BioAssay data set” (2004).

The structures appear in SMILES notation.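 Method: 48-hour compound exposure of cells in 96-well plates, five concentrations, linear interpolation of endpoints. GI50 is the concentration that inhibits growth by half.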 Activity calls are given as the source filed them. No stated cut-off is given here; in the data, active = GI50 up to about 1.1 µM and inactive = higher. Bounds are passed on as bounds.

Take `O=C1OCCC12CN(Cc1ccccc1)N=N2` (stereo not drawn): the GI50 in the assay on SK-OV-3, in the assay on SF-295, in the assay with NCI/ADR-RES, with MOLT-4, with SN12C and with OVCAR-3 was > 100 µM (inactive) in each case. The GI50 in the assay on SW-620 was > 100 µM (inactive); in the assay with TK-10 it was > 100 µM (inactive); in the assay on MDA-MB-231, > 100 µM (inactive); in the assay with HOP-92, > 100 µM (inactive); with ACHN it was 29.9 µM (inactive); in the assay with UO-31 it was > 100 µM (inactive). The GI50 with HT-29, with SK-MEL-28, in the assay on UACC-62, with MDA-N, in the assay with COLO 205 and with OVCAR-8 was > 100 µM (inactive) in each case.
Turning to `CC(Cn1c2c(c3cc(O)ccc31)CCc1ccc(O)cc1-2)N(C)C` (stereo not drawn), the GI50 with SK-OV-3 was 25.2 µM (inactive); with SF-295, 18.2 µM (inactive); in the assay on NCI/ADR-RES it was 20.2 µM (inactive); with MOLT-4, 35.6 µM (inactive); in the assay with SN12C it was 29.4 µM (inactive); in the assay with OVCAR-3 it was 15.6 µM (inactive). Further, the GI50 with SW-620 was 20.3 µM (inactive); with TK-10, 18.7 µM (inactive); in the assay with MDA-MB-231, 26 µM (inactive); in the assay with ACHN, 15.8 µM (inactive); with UO-31, 13.2 µM (inactive); in the assay with HT-29, 18.2 µM (inactive). The GI50 in the assay with CCRF-CEM is 53.3 µM (inactive); in the assay with UACC-62 it was 15.8 µM (inactive); in the assay on MDA-N, 18.8 µM (inactive); in the assay with OVCAR-8, 17.7 µM (inactive); in the assay with SNB-75 it was 15.8 µM (inactive).
As to `C[C@H]1C[C@H]2[C@@H]3C(C)(C)O[C@]4(O)C(=O)[C@]5(O)[C@@H](C)CC[C@H]1[C@]25C(=O)[C@]34C`, the GI50 with SK-OV-3 is 82.4 µM (inactive); in the assay with SF-295 it was 30.1 µM (inactive); with NCI/ADR-RES, 39.3 µM (inactive); with MOLT-4, 37.1 µM (inactive); in the assay on SN12C, 80.2 µM (inactive); with OVCAR-3 it was 27.4 µM (inactive). The GI50 is 79.6 µM (inactive) in the assay on SW-620; > 100 µM (inactive) in the assay on MDA-MB-231; 8.61 µM (inactive) in the assay on HOP-92; 27.3 µM (inactive) in the assay on ACHN; 51.6 µM (inactive) with UO-31; 26 µM (inactive) with HT-29. Besides, the GI50 in the assay on CCRF-CEM is 36.6 µM (inactive); in the assay on UACC-62 it was 43.4 µM (inactive); in the assay with MDA-N, 37.7 µM (inactive); in the assay on COLO 205, 16.7 µM (inactive); in the assay on OVCAR-8, 63.7 µM (inactive).
`CNC(=O)NCCN1CC2CCC(CC2)C1`: the GI50 with SK-OV-3, with SF-295, in the assay on NCI/ADR-RES, in the assay on MOLT-4, in the assay on SN12C and with OVCAR-3 was > 10 µM (inactive) throughout. The GI50 in the assay with SW-620, in the assay with TK-10, with MDA-MB-231, in the assay on ACHN, in the assay on UO-31 and in the assay with HT-29 was > 10 µM (inactive) in each case. For the same compound, the GI50 in the assay on SK-MEL-28, with CCRF-CEM, in the assay with UACC-62, in the assay on MDA-N, in the assay on COLO 205 and with OVCAR-8 was > 10 µM (inactive) in each case. In addition, in the assay with SNB-75, the GI50 was > 10 µM (inactive).
Regarding `NS(=O)(=O)c1nnc(NS(=O)(=O)c2ccc(Cl)cc2)s1`, the GI50 with SK-OV-3, in the assay on SF-295, in the assay on NCI/ADR-RES, with MOLT-4, with SN12C and in the assay with OVCAR-3 was > 100 µM (inactive) each time. The GI50 with SW-620, in the assay with TK-10, with MDA-MB-231, in the assay on HOP-92, with ACHN and in the assay on UO-31 was > 100 µM (inactive) throughout. For the same compound, the GI50 in the assay with HT-29, in the assay with SK-MEL-28, with UACC-62, with MDA-N, in the assay with COLO 205 and in the assay with OVCAR-8 was > 100 µM (inactive) throughout.
Take `O=[N+]([O-])c1ccc(CSC2=C(c3ccc(Cl)cc3)S/C(=C3\SC(SCc4ccc([N+](=O)[O-])cc4)=C(c4ccc(Cl)cc4)S3)S2)cc1`: the GI50 in the assay with SK-OV-3, with SF-295, in the assay with NCI/ADR-RES, in the assay with MOLT-4, with SN12C and in the assay with OVCAR-3 was > 100 µM (inactive) throughout. Moreover, the GI50 is > 100 µM (inactive) in the assay with SW-620; > 100 µM (inactive) in the assay on TK-10; > 100 µM (inactive) with MDA-MB-231; < 0.01 µM (active) in the assay on HOP-92; > 100 µM (inactive) in the assay on ACHN; > 100 µM (inactive) in the assay with HT-29. Besides, the GI50 with SK-MEL-28, with CCRF-CEM, in the assay with UACC-62, in the assay on MDA-N, in the assay with COLO 205 and with OVCAR-8 was > 100 µM (inactive) throughout.
For the compound `CCCCCCCCCCCCCOCCOCCOCCCCC(O)CCCCCCCCCC1=C[C@H](C)OC1=O` (stereo partly drawn), the GI50 is 31.8 µM (inactive) in the assay with SK-OV-3; 7.21 µM (inactive) in the assay with SF-295; 10 µM (inactive) in the assay on NCI/ADR-RES; 7.59 µM (inactive) in the assay with MOLT-4; 21.4 µM (inactive) in the assay on SN12C; 18.6 µM (inactive) in the assay on OVCAR-3. The GI50 in the assay on SW-620 is 16.4 µM (inactive); in the assay on TK-10 it was 2.94 µM (inactive); in the assay with MDA-MB-231, 22.4 µM (inactive); with ACHN, 28.6 µM (inactive); with UO-31 it was 16 µM (inactive); in the assay with HT-29, 15.6 µM (inactive). For the same compound, the GI50 with SK-MEL-28 is 11.4 µM (inactive); with CCRF-CEM, 9.86 µM (inactive); in the assay with UACC-62, 20 µM (inactive); in the assay with MDA-N, 15 µM (inactive); with COLO 205 it was 20.9 µM (inactive); in the assay on OVCAR-8, 18.7 µM (inactive). The GI50 in the assay with SNB-75 was 21.1 µM (inactive).
`CC1(C)CCC[C@]2(C)[C@H]3[C@H](C#N)c4cc(O)c(O)cc4O[C@@]3(C)CC[C@@H]12`: the GI50 in the assay with SK-OV-3, with SF-295, in the assay with NCI/ADR-RES, in the assay on MOLT-4, with SN12C and in the assay with OVCAR-3 was > 10 µM (inactive) in each case. Further, the GI50 with SW-620 was > 10 µM (inactive); with TK-10, > 10 µM (inactive); in the assay on MDA-MB-231, > 10 µM (inactive); with HOP-92, > 10 µM (inactive); with ACHN it was > 10 µM (inactive); in the assay on UO-31, 5.87 µM (inactive). The GI50 in the assay with SK-MEL-28, in the assay with CCRF-CEM, with MDA-N, with COLO 205 and in the assay on OVCAR-8 was > 10 µM (inactive) each time.
